The target of this experiment is CFTR (Homo sapiens, UniProt P13569). Description: Membrane Potential Dye, Enteroid Assay A. It counts as cell-based. To be noted: for EC50: read-out: Ent. A EC50. An outline of the steps: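 Enteroid cells were loaded with methyl oxonol membrane potential dye (plus CaCCinh-A01 and Chicago Sky Blue) for 25 min at room temperature. Chloride transport was started by switching to chloride-free gluconate stimulation solution, with fluorescence read for 15 min. Activity was expressed as % of a triple-combination CFTR modulator control (3 μM, 3 μM, 300 nM acute).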

Read-outs that look alike come from different tables or passages of the source. A value given as a limit tells only on which side of the number the result lay.

CFTR, sequence (P13569 with tags, fused parts or gaps DEL508-508): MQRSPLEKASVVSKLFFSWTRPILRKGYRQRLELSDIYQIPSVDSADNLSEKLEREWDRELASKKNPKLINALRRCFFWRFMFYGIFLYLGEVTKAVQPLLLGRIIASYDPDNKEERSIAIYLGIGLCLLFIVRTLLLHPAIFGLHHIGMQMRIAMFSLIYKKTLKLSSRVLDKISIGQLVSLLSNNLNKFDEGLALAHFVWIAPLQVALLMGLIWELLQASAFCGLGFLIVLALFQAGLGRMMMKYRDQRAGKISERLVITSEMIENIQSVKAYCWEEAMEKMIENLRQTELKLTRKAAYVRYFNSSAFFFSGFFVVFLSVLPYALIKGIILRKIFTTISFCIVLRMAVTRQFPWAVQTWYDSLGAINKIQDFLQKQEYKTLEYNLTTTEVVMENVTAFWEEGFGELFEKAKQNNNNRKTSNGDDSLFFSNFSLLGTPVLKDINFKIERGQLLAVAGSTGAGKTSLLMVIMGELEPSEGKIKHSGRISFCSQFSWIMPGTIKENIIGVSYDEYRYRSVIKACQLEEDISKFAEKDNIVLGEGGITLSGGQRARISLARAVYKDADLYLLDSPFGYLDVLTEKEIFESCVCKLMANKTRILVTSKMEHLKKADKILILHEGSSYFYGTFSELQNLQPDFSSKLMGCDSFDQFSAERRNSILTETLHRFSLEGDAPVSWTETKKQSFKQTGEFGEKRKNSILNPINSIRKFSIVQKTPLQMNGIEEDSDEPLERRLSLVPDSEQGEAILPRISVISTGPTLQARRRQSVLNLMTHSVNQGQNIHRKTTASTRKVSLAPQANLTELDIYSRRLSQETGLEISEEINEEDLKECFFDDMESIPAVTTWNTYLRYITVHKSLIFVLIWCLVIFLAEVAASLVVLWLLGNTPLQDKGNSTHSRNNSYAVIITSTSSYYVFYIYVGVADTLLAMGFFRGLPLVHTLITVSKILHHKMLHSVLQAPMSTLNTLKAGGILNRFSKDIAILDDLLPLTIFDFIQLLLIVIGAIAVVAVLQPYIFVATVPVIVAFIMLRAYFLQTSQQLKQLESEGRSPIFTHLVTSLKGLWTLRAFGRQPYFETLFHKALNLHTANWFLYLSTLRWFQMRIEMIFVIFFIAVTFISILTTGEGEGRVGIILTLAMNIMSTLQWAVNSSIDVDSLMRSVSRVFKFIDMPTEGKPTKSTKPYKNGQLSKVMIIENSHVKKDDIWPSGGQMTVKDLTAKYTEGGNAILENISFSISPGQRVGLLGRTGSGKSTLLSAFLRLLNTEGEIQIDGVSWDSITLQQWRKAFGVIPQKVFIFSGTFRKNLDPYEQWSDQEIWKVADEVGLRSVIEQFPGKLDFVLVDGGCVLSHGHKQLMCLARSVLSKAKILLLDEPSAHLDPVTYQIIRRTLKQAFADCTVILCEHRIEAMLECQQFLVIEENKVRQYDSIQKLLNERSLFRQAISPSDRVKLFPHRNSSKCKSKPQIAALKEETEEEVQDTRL

Turning to `Cc1nc(C(F)(F)F)c(C(=O)N2CCC3(CC2)CNC(=O)c2cccc(c2)S(=O)(=O)Nc2nc(cc(-c4c(C)cccc4C)n2)OC3)s1` [Compound 460], the “Ent. A Max Activity” value (Enteroid Assay A) is listed as “++ (++ is 30-60%)”.
As for `Cc1cc(C(F)(F)F)n(-c2cc3nc(n2)NS(=O)(=O)c2cccc(c2)C(=O)N[C@H](CC(C)C)CO3)n1` [Compound 109, (11R)-6-[3-methyl-5-(trifluoromethyl)-1H-pyrazol-1-yl]-11-(2-methylpropyl)-9-oxa-2λ^6-thia-3,5,12,19-tetraazatricyclo[12.3.1.14,8]nonadeca-1(17),4,6,8(19),14(18),15-hexaene-2,2,13-trione], under “Table 8”, the “Ent. A Max Activity” value is reported as “+ (+ is <30%)” and the EC50 was less than 1000 nM.
As for `Cc1cccc(C)c1-c1cc2nc(n1)NS(=O)(=O)c1cccc(c1)C(=O)NCC1(CCN(Cc3sccc3Oc3ccccc3)CC1)CO2` [Compound 83, 6-(2,6-Dimethylphenyl)-2,2-dioxo-1′-[(3-phenoxy-2-thienyl)methyl]spiro[9-oxa-2λ^6-thia-3,5,13,20-tetrazatricyclo[13.3.1.14,8]icosa-1(19),4(20),5,7,15,17-hexaene-11,4′-piperidine]-14-one], under “Enteroid Assay A”, the “Ent. A Max Activity” value was “+++ (+++ is >600%)” and the EC50 was less than 1000 nM.
For the molecule `Cc1cccc(C)c1-c1cc2nc(n1)NS(=O)(=O)c1cccc(c1)C(=O)NCC(c1ccc3c(c1)OCCO3)O2` (centres unmarked) [Compound 116], where the note is “Table 8”, the “Ent. A Max Activity” value is given as “+++ (+++ is >60%)” and the EC50 is less than 1000 nM.
For `Cc1cccc(C2CNC(=O)c3cccc(c3)S(=O)(=O)Nc3nc(cc(-c4c(C)cccc4C)n3)O2)c1` (centres unmarked) [Compound 404], in that order: “+++ (+++ is >60%)” and less than 1000 nM.
For the molecule `Cc1cccc(C)c1-c1cc2nc(n1)NS(=O)(=O)c1cccc(c1)C(=O)NCC1(CCN(Cc3cccc(OC(F)(F)F)c3F)CC1)CO2` [Compound 431], for the setting “Enteroid Assay A”, the “Ent. A Max Activity” value is “++ (++ is 30-60%)” and the EC50 was less than 1000 nM.
Consider `Cc1cccc(C)c1-c1cc2nc(n1)NS(=O)(=O)c1ccccc1C(=O)NC(CC(C)C)CO2` (centres unmarked) [Compound 223], for which, where the note is “Table 9”, the “Ent. A Max Activity” value is “+ (+ is <30%)”.
As for `Cc1cccnc1-c1cc2nc(n1)NS(=O)(=O)c1cccc(c1)C(=O)N[C@H](CC(C)C)CO2` [Compound 108, (11R)-11-Isobutyl-6-(3-methyl-2-pyridyl)-2,2-dioxo-9-oxa-2λ^6-thia-3,5,12,19-tetrazatricyclo[12.3.1.14,8]nonadeca-1(18),4(19),5,7,14,16-hexaen-13-one], for the setting “Table 9”, the “Ent. A Max Activity” value was “++ (++ is 30-60%)” and the EC50 fell in the range of 3000 to 30000 nM.
For `Cc1cccc(C)c1-c1cc2nc(n1)NS(=O)(=O)c1cccc(c1)C(=O)NCC1(CCN(Cc3ccc(NC(=O)OC(C)(C)C)nc3)CC1)CO2` [Compound 433], under “Enteroid Assay A”, the “Ent. A Max Activity” value is reported as “++ (++ is 30-60%)” and the EC50 was 3000 to 30000 nM.
`Cc1cccc(C)c1-c1cc2nc(n1)NS(=O)(=O)c1cccc(c1)C(=O)NCC(c1ccc([Si](C)(C)C)cc1)O2` (single isomer, unassigned) [Compound 16, 6-(2,6-Dimethylphenyl)-2,2-dioxo-10-(4-trimethylsilylphenyl)-9-oxa-2λ^6-thia-3,5,12,19-tetrazatricyclo[12.3.1.14,8]nonadeca-1(18),4(19),5,7,14,16-hexaen-13-one]: the concentration giving a half-maximal response (EC50) (Table 9) is less than 1000 nM.
Consider `Cc1cccc(C)c1-c1cc2nc(n1)NS(=O)(=O)c1cccc(c1)C(=O)N[C@@H]1CCN(C(=O)CC(C)(C)C)C[C@@H]1O2` (stereo in doubt) [Compound 380], for which, for the setting “Table 9”, the “Ent. A Max Activity” value was “++ (++ is 30-60%)” and the EC50 fell in the range of 3000 to 30000 nM.
With `CC[C@H]1NC(=O)c2cccc(c2)S(=O)(=O)Nc2nc(cc(-c3c(C)cccc3C)n2)O[C@@H]1c1ccc(C(C)(C)C)cc1` [Compound 133], for the setting “Table 9”, the “Ent. A Max Activity” value is “+++ (+++ is >60%)” and the EC50 is less than 1000 nM.
`Cc1cccc(C)c1-c1cc2nc(n1)NS(=O)(=O)c1cccc(c1)C(=O)NC[C@@H](c1ccccn1)O2` [Compound 232]: the “Ent. A Max Activity” value (Table 8) is reported as “+ (+ is <30%)”.
`Cc1cccc(C)c1-c1cc2nc(n1)NS(=O)(=O)c1cccc(c1)C(=O)NCC(c1ccc(Br)cc1)O2` (single isomer, unassigned) [Compound 20, 10-(4-bromophenyl)-6-(2,6-dimethylphenyl)-2,2-dioxo-9-oxa-2λ^6-thia-3,5,12,19-tetrazatricyclo[12.3.1.14,8]nonadeca-1(18),4(19),5,7,14,16-hexaen-13-one]: the concentration giving a half-maximal response (EC50) (Table 8) was less than 1000 nM.
Regarding `CC(C)C[C@@H]1COc2cc(-c3ccccc3C3CC3)nc(n2)NS(=O)(=O)c2cccc(c2)C(=O)N1` [Compound 105, (11R)-6-(2-cyclopropylphenyl)-11-(2-methylpropyl)-9-oxa-2λ^6-thia-3,5,12,19-tetraazatricyclo[12.3.1.14,8]nonadeca-1(17),4(19),5,7,14(18),15-hexaene-2,2,13-trione], under “Enteroid Assay A”, the “Ent. A Max Activity” value was “+++ (+++ is >600%)” and the EC50 was less than 1000 nM.
As to `Cc1cccc(C)c1-c1cc2nc(n1)NS(=O)(=O)c1cccc(c1)C(=O)NCC1(CCN(Cc3ccccc3)CC1)CO2` [Compound 442], under “Enteroid Assay A”, the EC50 lay within 3000 to 30000 nM.
Turning to `CC(C)C[C@@H]1COc2cc(-c3ccccc3-c3ccccc3)nc(n2)NS(=O)(=O)c2cccc(c2)C(=O)N1` [Compound 101, (11R)-11-Isobutyl-2,2-dioxo-6-(2-phenylphenyl)-9-oxa-2λ^6-thia-3,5,12,19-tetrazatricyclo[12.3.1.14,8]nonadeca-1(18),4,6,8(19),14,16-hexaen-13-one], under “Table 9”, the “Ent. A Max Activity” value was “+++ (+++ is >60%)” and the concentration giving a half-maximal response (EC50) is less than 1000 nM.
For `Cc1cccc(C)c1-c1cc2nc(n1)NS(=O)(=O)c1cccc(c1)C(=O)N[C@H](CC1CCOCC1)CO2` (stereo in doubt) [Compound 191], where the note is “Enteroid Assay A”, the “Ent. A Max Activity” value is “+++ (+++ is >600%)” and the EC50 fell in the range of 3000 to 30000 nM.
For `Cc1cccc(C)c1-c1cc2nc(n1)NS(=O)(=O)c1cccc(c1)C(=O)NCC(c1ccc(C[Si](C)(C)C)cc1)O2` (centres unmarked) [Compound 128], the EC50 (Table 9) was less than 1000 nM.
`Cc1cccc(C)c1-c1cc2nc(n1)NS(=O)(=O)c1cccc(c1)C(=O)NC[C@@H](c1ccc(C(C)(C)C(F)(F)F)cc1)O2` [Compound 257]: for the setting “Table 9”, the “Ent. A Max Activity” value is listed as “+ (+ is <30%)” and the concentration giving a half-maximal response (EC50) is less than 1000 nM.
`Cc1cccc(C)c1-c1cc2nc(n1)NS(=O)(=O)c1cccc(c1)C(=O)N[C@H](CC1(C(F)(F)F)CC1)CO2` (stereo in doubt) [Compound 289]: the concentration giving a half-maximal response (EC50) (Table 8) was 1000 to 3000 nM.
In the case of `Cc1cccc(C)c1-c1cc2nc(n1)NS(=O)(=O)c1cccc(c1)C(=O)N[C@@H](c1ccccc1)CCO2` [Compound 290], the EC50 (Table 8) fell in the range of 1000 to 3000 nM.
Turning to `CCCC1(CCC)COc2cc(-c3c(C)cccc3C)nc(n2)NS(=O)(=O)c2cccc(c2)C(=O)N1` [Compound 184], under “Table 9”, the “Ent. A Max Activity” value was “+++ (+++ is >60%)” and the EC50 was less than 1000 nM.
Take `Cc1cccc(C)c1-c1cc2nc(n1)NS(=O)(=O)c1cccc(c1)C(=O)NCC(c1cccc(C(C)(C)C)c1)O2` (centres unmarked) [Compound 247]: under “Table 8”, the “Ent. A Max Activity” value is reported as “+++ (+++ is >60%)” and the EC50 is less than 1000 nM.
Regarding `Cc1cccc(C)c1-c1cc2nc(n1)NS(=O)(=O)c1cccc(c1)C(=O)N[C@@H](C(CC(C)C)c1ccccc1)CO2` (stereo in doubt) [Compound 180], under “Table 9”, the “Ent. A Max Activity” value is recorded as “++ (++ is 30-60%)” and the EC50 was less than 1000 nM.

Source of the values: US20230382924A1, “MODULATORS OF CYSTIC FIBROSIS TRANSMEMBRANE CONDUCTANCE REGULATOR” (VERTEX PHARMACEUTICALS INCORPORATED, priority 2020, published 2023).
